Experimental findings from patent US20070129380A1 are described below.

In one data set the test system is Botrytis cinerea. Nature of the data set: Activity against gray mold on bell pepper leaves caused by Botrytis cinerea, protective application. The class given is in vivo. The settings on record: 250 ppm active compound, sprayed to runoff, bell pepper seedlings, inoculated next day, assessed after 5 days; untreated plants 90% infected. The protocol: The active compounds were prepared separately as a stock solution with 0.25% by weight of active compound in acetone or DMSO. 1% by weight of the emulsifier Uniperol® EL (wetting agent having emulsifying and dispersing action based on ethoxylated alkyl-phenols) was added to this solution. The stock solutions of the active compounds were diluted with water to the desired concentration. 1) Activity Against Gray Mold on Bell Pepper Leaves Caused by Botrytis cinerea, Protective Application […] The next day, the treated plants were inoculated with a spore suspension of Botrytis cinerea, this contained 1.7×10^6 spores/ml in a 2% strength aqueous biomalt solution. The test plants were then placed in a climate-chamber at 22-24° C. and high atmospheric humidity.

Data set [1] has as its system Pyrenophora [syn. Drechslera] teres. In words: Activity against net blotch of barley caused by Pyrenophora teres. The class given is in vivo. The settings on record: 250 ppm active compound, sprayed to runoff, barley seedlings, inoculated 24 hours after drying, assessed after 6 days; untreated plants 80% infected. The procedure: The active compounds were prepared separately as a stock solution with 0.25% by weight of active compound in acetone or DMSO. 1% by weight of the emulsifier Uniperol® EL (wetting agent having emulsifying and dispersing action based on ethoxylated alkyl-phenols) was added to this solution. The stock solutions of the active compounds were diluted with water to the desired concentration. 4) Activity Against Net Blotch of Barley Caused by Pyrenophora teres […] Drechslera] teres, the causative agent of net blotch. The test plants were subsequently placed in a greenhouse at temperatures of between 20 and 24° C. and a relative atmospheric humidity of 95 to 100%. After 6 days, the extent of development of the disease was determined visually in % of infection of the total leaf area.

For the compound `C[C@H](Nc1nc(C(N)=S)nc(Cl)c1-c1c(F)cc(F)cc1F)C(F)(F)F` [Compound I-2, (S)-4-chloro-6-(2,2,2-trifluoro-1-methylethylamino)-5-(2,4,6-trifluorophenyl)pyrimidine-2-thiocarbamide], the “extent of the fungal infection on the leaves determined visually in %” value with Botrytis cinerea was “not infected”. Same read-out and setting: in the case of `CC(C)Nc1nc(C(N)=S)nc(Cl)c1-c1c(F)cccc1Cl` [Compound I-3] it was “not infected”.

On to `CC(C)Nc1nc(C(N)=S)nc(Cl)c1-c1c(F)cc(F)cc1F` [Compound I-4], for which the melting point (in general, the temperature of the solid-liquid transition) was 145 to 149 °C. The “extent of the fungal infection on the leaves determined visually in %” value with Botrytis cinerea is listed as “not infected”. The matching figures for `CCC(C)Nc1nc(C(N)=S)nc(Cl)c1-c1c(F)cccc1Cl` (stereo not drawn) [Compound I-8, 4-sec-butylamino-6-chloro-5-(2-chloro-6-fluorophenyl)pyrimidine-2-thiocarbamide]: 147 to 150 °C and “not infected”. In turn, `CCN(CC)c1nc(C(N)=S)nc(Cl)c1-c1c(F)cc(F)cc1F` [Compound I-19] returned a melting point of 55 to 58 °C. Besides, the “extent of development of the disease determined visually in % of infection of the total leaf area” value in data set [1] came to 10%. Compound `Cc1nc(C(N)=S)nc(NC(C)C)c1-c1c(F)cc(F)cc1F` [Compound I-23] returned a melting point of 158 °C.
